Measurements reported in PMC10748408 (Frontiers in Oncology, 2023).

Legend:
tumor cells = assay: Autophagic cells (acridine orange, flow cytometry) in cells isolated from tumors; format: in vivo, BALB/c mice; details: tumor-bearing mice, T+6.25 to T+50 mg/kg, vs Tumor
Procedure: Acidic vesicular organelles (AVOs) were examined by microscopy and quantified using flow cytometry of acridine orange (AO) stained cells. Cells were isolated from tissues by collagenase-hyaluronidase digestion and stained with AO (1µg/ml) by incubation at 37°C for 15 minutes in dark. Following subsequent PBS washes, the cells were observed under Olympus laser-scanning confocal microscope (FV-10 ASW 3.0 viewer image browser) at 450 and 593 nm to determine AVOs.

[1] = system: cells isolated from the liver, kidney and lungs; assay: MTT viability of cells isolated from organs of treated mice; format: in vivo, BALB/c mice; details: MTT assay
Procedure: Tissue samples were immersed in 9 parts of serum-free DMEM and 1 part of enzyme cocktail. Digestion was performed at 37°C for 4 hours. Isolated cells were washed well to remove any remaining enzyme, resuspended in ice-cold PBS and filtered through a single cell mesh to dissociate cell clumps. Cell viability was checked using trypan blue dye exclusion test before using the cells for further assays ([21]). 1 x 10^5 viable cells were seeded in a 96-well plate. […] Following treatment, wells were washed to remove the media and 100 µl of PBS was added to each well. Finally, 10 µl of MTT solution (5 mg/mL in PBS) was added and incubated at 37°C for 3 hours. The purple crystals formed were dissolved in 150 µl of DMSO. Absorbance was measured at 570 nm in a multi-plate reader Varioskan™ Lux (Thermo Fisher Scientific, USA; [21]).

4T1 cells = assay: Cell viability assay (MTT); format: cell-based, murine; details: Mus musculus, 24 hours
Procedure: (§1) Human triple negative breast cancer cells MDA-MB-231 and murine mammary cancer cells 4T1 were obtained from National Centre for Cell Sciences, Pune, India. Cells were maintained in complete Dulbecco’s Modified Eagle Medium (DMEM) supplemented with 10% FBS and 1% penicillin/streptomycin, and incubated at 37°C in 5% CO2 - 95% humidified atmosphere. Cells in log phase of growth was used for all subsequent experiments ([21]). 1 x 10^5 viable cells were seeded in a 96-well plate. […] Following treatment, wells were washed to remove the media and 100 µl of PBS was added to each well. Finally, 10 µl of MTT solution (5 mg/mL in PBS) was added and incubated at 37°C for 3 hours. The purple crystals formed were dissolved in 150 µl of DMSO. Absorbance was measured at 570 nm in a multi-plate reader Varioskan™ Lux (Thermo Fisher Scientific, USA; [21]).

MDA-MB-231 cells [2] = assay: Cell viability assay (MTT); format: cell-based; details: Homo sapiens, 24 hours
Procedure: as §1

Body weight of mice = format: in vivo, BALB/c mice
Procedure: Mouse mammary 4T1 cells in passage numbers between 7 and 12 (10^4 cells/ml in 50 µl PBS) were injected into the inguinal 4th mammary fat pad of BALB/c mice ([23], [24]). Normal mice received an equal volume of sterile PBS. A palpable tumor was allowed to develop for 14 days ([24]). […] Normal (mammary fat pad surrounding the 4th inguinal mammary pad), mammary tumor, and organs like lungs, kidney, liver, and blood were collected at the end of the experimental schedule. Body weight and tumor volume of each mouse were recorded daily during the tenure of the experiment. Tumor volume was calculated using the following formula: length (mm) × width^2 (mm) × 0.52 ([25]).

MDA-MB-231 cells [3] = assay: Apoptotic cells (Annexin-FITC/PI flow cytometry) with or without CLEC12A overexpression; format: cell-based, Human; details: MDA-MB-231, non-transfected, ART + (5 µM, 24 hours); without ART 0.5%
Procedure: Cells, isolated from normal and treated/untreated tumor tissues by collagenase-hyaluronidase digestion, were washed with Ca^2+-free PBS and stained with Annexin V binding buffer (1X). The cells were then incubated with Annexin V-FITC and propidium iodide (PI) for 15 minutes at 37°C. Cells were eventually analyzed on the BD FACS Aria III (Alexa Fluor at 488nm and PE at 570 nm, respectively). The percentage of apoptotic and necrotic cells were analyzed using the […]™ software (BD Biosciences, USA; [37]). For transfection, MDA-MB-231 and 4T1 cells were grown in a 6-well plate until they reached 70% confluency. CLEC12A-pcDNA recombinant/empty DNA plasmid (2500ng) or pcDNA empty vector (2500ng) was transfected into cells using 5μl Lipofectamine® 2000 reagent. […] Finally, transfection efficiency was confirmed by western blot analysis ([42]).

For `C[C@@H]1CC[C@H]2[C@@H](C)C(=O)O[C@@H]3O[C@@]4(C)CC[C@@H]1[C@]32OO4` [ART, Artemisinin], the “percentage of autophagic cells” value (tumor cells) was “dose-dependent decrease”, the “viability of cells isolated from the liver, kidney and lungs” value ([1]; normal mice treated with ART) was “no loss of viability” and the “viability of cells isolated from the liver, kidney and lungs” value ([1]; tumor-bearing mice, increasing doses of ART) was “significantly increased cell viability”. For the same compound, the IC50 (4T1 cells) was 1000 nM, the IC50 (MDA-MB-231 cells [2]) was 5000 nM and the body weight (Body weight of mice; normal mice, ART 6.25-50 mg/kg, 7 days, vs vehicle) was “did not alter”. For the same compound, the body weight (Body weight of mice; tumor-bearing mice, ART treatment, dose-dependent) was “restored towards normal values” and the “percentage of apoptotic cells” value (MDA-MB-231 cells [3]) was 22%.
